Tested on: U87MG cells
Experiment: Cytotoxicity assay (cell viability, CellTiter 96 Aqueous MTS)
Type: cell-based
Conditions: Homo sapiens, U-87 MG, 72 h, 72 hours incubation, starting concentration 50 uM, 9 point half log dilution, average where tested repeatedly
Protocol: Example 3: Cytotoxicity Assay
U87MG cells were plated at a density of 7×10^3 cells/well and allowed to seed overnight. Cells were then treated with compounds from Table 1 or CMPD-1 (4-(2′-fluoro-[1,1′-biphenyl]-4-yl)-N-(4-hydroxyphenyl)butanamide as a positive control) were added to cells at a starting concentration of 50 uM, with a 9 point half log dilution, and incubated for 72 hours prior to viability determination. IC50 values were calculated from cell viability as measured using the CellTiter 96® Aqueous MTS reagent from Promega©, and the results are shown in Table 2.

Compound | IC50 [µM]
O=C(CCCc1ccc(-c2ccccc2F)cc1)Nc1ccc2[nH]ncc2c1 [Compound 4, 4-(2′-fluoro-[1,1′-biphenyl]-4-yl)-N-(1H-indazol-5-yl)butanamide] | 1 to 5
O=C(CCCc1ccc(-c2ccccc2F)cc1)Nc1ccc2[nH]ccc2c1 [Compound 6, 4-(2′-fluoro-[1,1′-biphenyl]-4-yl)-N-(1H-indol-5-yl)butanamide] | 1 to 5
O=C(CCCc1ccc(-c2ccccc2F)cc1)Nc1ccc(O)nc1 [Compound 8, 4-(2′-fluoro-[1,1′-biphenyl]-4-yl)-N-(6-hydroxypyridin-3-yl)butanamide] | > 5
O=C(CCCc1ccc(-c2ccccc2F)cc1)Nc1cccnc1 [Compound 37, 4-(2′-fluoro-[1,1′-biphenyl]-4-yl)-N-(pyridin-3-yl)butanamide] | 0.501 to 1
O=C(CCCc1ccc(-c2ccccc2F)cc1)Nc1nccs1 [Compound 38, 4-(2′-fluoro-[1,1′-biphenyl]-4-yl)-N-(thiazol-2-yl)butanamide] | > 5
COc1ccc(NC(=O)CCCc2ccc(-c3ccccc3F)cc2)cn1 [Compound 39, 4-(2′-fluoro-[1,1′-biphenyl]-4-yl)-N-(6-methoxypyridin-3-yl)butanamide] | > 5
O=C(CCCc1ccc(-c2ccccc2F)cc1)Nc1ccccn1 [Compound 40, 4-(2′-fluoro-[1,1′-biphenyl]-4-yl)-N-(pyridin-2-yl)butanamide] | > 5
O=C(CCCc1ccc(-c2ccccc2F)cc1)NCc1cccnc1 [Compound 41, 4-(2′-fluoro-[1,1′-biphenyl]-4-yl)-N-(pyridin-3-ylmethyl)butanamide] | > 5
O=C(CCCc1ccc(-c2ccccc2F)cc1)NCc1ccncc1 [Compound 42, 4-(2′-fluoro-[1,1′-biphenyl]-4-yl)-N-(pyridin-4-ylmethyl)butanamide] | 1 to 5
O=C(CCCc1ccc(-c2ccccc2F)cc1)NCc1ccccn1 [Compound 43, 4-(2′-fluoro-[1,1′-biphenyl]-4-yl)-N-(pyridin-2-ylmethyl)butanamide] | 1 to 5
COc1ccc(CNC(=O)CCCc2ccc(-c3ccccc3F)cc2)cc1 [Compound 44, 4-(2′-fluoro-[1,1′-biphenyl]-4-yl)-N-(4-methoxybenzyl)butanamide] | 0.501 to 1
Cc1ccc(NC(=O)CCCc2ccc(-c3ccccc3F)cc2)cn1 [Compound 45, 4-(2′-fluoro-[1,1′-biphenyl]-4-yl)-N-(6-methylpyridin-3-yl)butanamide] | < 0.5
O=C(CCCc1ccc(-c2ccccc2F)cc1)Nc1cn[nH]c1 [Compound 47, 4-(2′-fluoro-[1,1′-biphenyl]-4-yl)-N-(1H-pyrazol-4-yl)butanamide] | > 5
Cn1cc(CNC(=O)CCCc2ccc(-c3ccccc3F)cc2)cn1 [Compound 48, 4-(2′-fluoro-[1,1′-biphenyl]-4-yl)-N-((1-methyl-1H-pyrazol-4-yl)methyl)butanamide] | 1 to 5
O=C(CCCc1ccc(-c2ccccc2F)cc1)NCC1CC1 [Compound 50, N-(cyclopropylmethyl)-4-(2′-fluoro-[1,1′-biphenyl]-4-yl)butanamide] | 1 to 5
O=C(CCCc1ccc(-c2ccccc2F)cc1)Nc1ccc(C(F)(F)F)nc1 [Compound 51, 4-(2′-fluoro-[1,1′-biphenyl]-4-yl)-N-(6-(trifluoromethyl)pyridin-3-yl)butanamide] | > 5
CN(C(=O)CCCc1ccc(-c2ccccc2F)cc1)c1cccnc1 [Compound 52, 4-(2′-fluoro-[1,1′-biphenyl]-4-yl)-N-methyl-N-(pyridin-3-yl)butanamide] | > 5
O=C(CCCc1ccc(-c2ccccc2F)cc1)Nc1ccc2c(c1)OCC(=O)N2 [Compound 53, 4-(2′-fluoro-[1,1′-biphenyl]-4-yl)-N-(3-oxo-3,4-dihydro-2H-benzo[b][1,4]oxazin-7-yl)butanamide] | 0.501 to 1
O=C(CCCc1ccc(-c2ccccc2F)cc1)NC1CCC(F)(F)CC1 [Compound 54, N-(4,4-difluorocyclohexyl)-4-(2′-fluoro-[1,1′-biphenyl]-4-yl)butanamide] | > 5
O=C(CCCc1ccc(-c2ccccc2F)cc1)NC1COC1 [Compound 55, 4-(2′-fluoro-[1,1′-biphenyl]-4-yl)-N-(oxetan-3-yl)butanamide] | 1 to 5
O=C(CCCc1ccc(-c2ccccc2F)cc1)Nc1ccc2[nH]c(=O)[nH]c2c1 [Compound 58, 4-(2′-fluoro-[1,1′-biphenyl]-4-yl)-N-(2-oxo-2,3-dihydro-1H-benzo[d]imidazol-5-yl)butanamide] | > 5
O=C(CCCc1ccc(-c2ccccc2F)cc1)Nc1ccc2c(c1)CNC2=O [Compound 59, 4-(2′-fluoro-[1,1′-biphenyl]-4-yl)-N-(1-oxoisoindolin-5-yl)butanamide] | > 5
O=C(CCCc1ccc(-c2ccccc2F)cc1)NC1CCC(O)CC1 (stereo not drawn) [Compound 62, 4-(2′-fluoro-[1,1′-biphenyl]-4-yl)-N-(4-hydroxycyclohexyl)butanamide] | > 5

Compound | IC50 [µM]
O=C(CCCc1ccc(-c2ccccc2F)cc1)Nc1ccon1 [Compound 63, 4-(2′-fluoro-[1,1′-biphenyl]-4-yl)-N-(isoxazol-3-yl)butanamide] | > 5
O=C(NCCCc1ccc(-c2ccccc2F)cc1)c1cccnc1 [Compound 64, N-(3-(2′-fluoro-[1,1′-biphenyl]-4-yl)propyl)nicotinamide] | < 0.5
O=C(NCCCc1ccc(-c2ccccc2F)cc1)c1cccnn1 [Compound 65, N-(3-(2′-fluoro-[1,1′-biphenyl]-4-yl)propyl)pyridazine-3-carboxamide] | > 5
O=C(NCCCc1ccc(-c2ccccc2F)cc1)c1cn[nH]c1 [Compound 66, N-(3-(2′-fluoro-[1,1′-biphenyl]-4-yl)propyl)-1H-pyrazole-4-carboxamide] | > 5
O=C(NCCCc1ccc(-c2ccccc2F)cc1)c1cncnc1 [Compound 67, N-(3-(2′-fluoro-[1,1′-biphenyl]-4-yl)propyl)pyrimidine-5-carboxamide] | < 0.5
O=C(NCCCc1ccc(-c2ccccc2F)cc1)c1ccc2[nH]nnc2c1 [Compound 70, N-(3-(2′-fluoro-[1,1′-biphenyl]-4-yl)propyl)-1H-benzo[d][1,2,3]triazole-5-carboxamide] | > 5
Cc1ccc(C(=O)NCCCc2ccc(-c3ccccc3F)cc2)cn1 [Compound 71, N-(3-(2′-fluoro-[1,1′-biphenyl]-4-yl)propyl)-6-methylnicotinamide] | < 0.5
O=C(NCCCc1ccc(-c2ccccc2F)cc1)c1ccc2[nH]ncc2c1 [Compound 73, N-(3-(2′-fluoro-[1,1′-biphenyl]-4-yl)propyl)-1H-indazole-5-carboxamide] | 1 to 5
O=C(NCCCc1ccc(-c2ccccc2F)cc1)c1ccc2[nH]ccc2c1 [Compound 74, N-(3-(2′-fluoro-[1,1′-biphenyl]-4-yl)propyl)-1H-indole-5-carboxamide] | 0.501 to 1
O=C(NCCCc1ccc(-c2ccccc2F)cc1)C1CC(F)(F)C1 [Compound 75, 3,3-difluoro-N-(3-(2′-fluoro-[1,1′-biphenyl]-4-yl)propyl)cyclobutane-1-carboxamide] | > 5
O=C(NCCCc1ccc(-c2ccccc2F)cc1)c1cnccn1 [Compound 76, N-(3-(2′-fluoro-[1,1′-biphenyl]-4-yl)propyl)pyrazine-2-carboxamide] | > 5
O=C(NCCCc1ccc(-c2ccccc2F)cc1)[C@H]1C[C@@H](O)C1 [Compound 77, (1s,3s)-N-(3-(2′-fluoro-[1,1′-biphenyl]-4-yl)propyl)-3-hydroxycyclobutane-1-carboxamide] | > 5
O=C(NCCCc1ccc(-c2ccccc2F)cc1)c1ccc2cn[nH]c2c1 [Compound 79, N-(3-(2′-fluoro-[1,1′-biphenyl]-4-yl)propyl)-1H-indazole-6-carboxamide] | > 5
Cc1cncc(C(=O)NCCCc2ccc(-c3ccccc3F)cc2)c1 [Compound 80, N-(3-(2′-fluoro-[1,1′-biphenyl]-4-yl)propyl)-5-methylnicotinamide] | 1 to 5
O=C(NCCCc1ccc(-c2ccccc2F)cc1)C1=CN2C=CNC2C=C1 (stereo not drawn) [Compound 82, N-(3-(2′-fluoro-[1,1′-biphenyl]-4-yl)propyl)-1,8a-dihydroimidazo[1,2-a]pyridine-6-carboxamide] | > 5
O=C(NCCCc1ccc(-c2ccccc2F)cc1)c1ccc(C(F)(F)F)nc1 [Compound 83, N-(3-(2′-fluoro-[1,1′-biphenyl]-4-yl)propyl)-6-(trifluoromethyl)nicotinamide] | 1 to 5
O=C(NCCCc1ccc(-c2ccccc2F)cc1)c1nc2ccccc2[nH]1 [Compound 84, N-(3-(2′-fluoro-[1,1′-biphenyl]-4-yl)propyl)-1H-benzo[d]imidazole-2-carboxamide] | > 5
O=C(NCCCc1ccc(-c2ccccc2F)cc1)c1cncc(C(F)(F)F)c1 [Compound 85, N-(3-(2′-fluoro-[1,1′-biphenyl]-4-yl)propyl)-5-(trifluoromethyl)nicotinamide] | 1 to 5
CN1CCC(C(=O)NCCCc2ccc(-c3ccccc3F)cc2)CC1 [Compound 87, N-(3-(2′-fluoro-[1,1′-biphenyl]-4-yl)propyl)-1-methylpiperidine-4-carboxamide] | > 5
Cn1cnc(C(=O)NCCCc2ccc(-c3ccccc3F)cc2)c1 [Compound 88, N-(3-(2′-fluoro-[1,1′-biphenyl]-4-yl)propyl)-1-methyl-1H-imidazole-4-carboxamide] | > 5
Cc1cc(C(=O)NCCCc2ccc(-c3ccccc3F)cc2)n(C)n1 [Compound 89, N-(3-(2′-fluoro-[1,1′-biphenyl]-4-yl)propyl)-1,3-dimethyl-1H-pyrazole-5-carboxamide] | < 0.5
Cc1cc(C(=O)NCCCc2ccc(-c3ccccc3F)cc2)no1 [Compound 90, N-(3-(2′-fluoro-[1,1′-biphenyl]-4-yl)propyl)-5-methylisoxazole-3-carboxamide] | < 0.5

From patent US12247010B2, “Tubulin inhibitors” (LIN BIOSCIENCE PTY LTD., priority 2017, dated 2025)
